Data reported in patent US4551547A, “Biocidal 2-aryl-1, 3-cyclopentanedione enol ester compounds” (Union Carbide Corporation, priority 1983, dated 1985).
In brackets after ≈: the same amount, converted by molar mass.

Assays:
[1] = tested on: two-spotted mite (adults and nymphal stages); assay: Mite Foliage Spray Test (adults and nymphs); type: in vivo, Tetranychus urticae (Koch); set-up: key to Miticidal, Adult: A: Excellent Control; B: Partial Control; No Control; conditions: for Miticidal, Adult: Table II, mortality count after four days; for LC50: Tetranychus urticae, foliar, Table III, ppm required for a 50 percent kill of mites, read-out: Miticidal LD50, Adult
Procedure: Suspensions of the test compounds were prepared by dissolving one gram of compound in 50 milliliters of acetone in which had been dissolved 0.1 gram (10 percent of the weight of compound) of an alkylphenoxyethanol sufactant, as an emulsifying or dispersing agent. The resulting solution was mixed into 160 milliliters of water to give roughly 200 milliliters of a suspension containing the compound in finely divided form. The thus prepared stock suspension contained 0.5 percent by weight of compound. The test concentrations employed in the tests described below were obtained by diluting the stock suspension with water. The test procedures were as follows: Adults and nymphal stages of the two-spotted mite (Tetranychus urticae (Koch)), reared on Tender-green beam plants at 80±5° F. and 50±5 percent relative humidity, were the tests organisms. Infested leaves from a stock culture were placed of the primary leaves of two bean plants six to eight inches in height, growing in a two-and-a-half inch clay pot. 150-200 Mites, a sufficient number for testing, transferred from the excised leaves to the fresh plants in a period of twenty-four hours. Following the twenty-four hour transfer period, the excised leaves were removed from the infested plants. The test compounds were formulated by diluting the stock suspension with water to provide suspensions containing the desired amount of test compound per million parts of final formulation. The potted plants (one pot per compound) were placed on a revolving turntable and sprayed with 100-110 milliliters of tests compound formulation by use of a DeVilbis spray gun set at 40 psi, air pressure. This application, which lasted 30 seconds, was sufficient to wet the plants to run-off. As a control, 100-110 milliliters of a water solution containing acetone and emulsifier in the same concentrations as the test compound formulation, but containing no test compound, were also sprayed on infested plants. The sprayed plants were held at 80±5° F. and 50±5 percent relative humidity for four days, after which, a mortality count of motile forms was made on the leaves of the test plants. Any individual which was capable of locomotion upon prodding was considered living. In these tests the pesticidal activity of the compounds against mites and mite eggs was rated as follows: Tests were conducted in accordance with the procedures given at pages 17 to 21 supra. The results are expressed in the same manner as used in Table II, except with respect to miticidal activity. For mite adult and mite egg comparison purposes, results are given in parts per million (ppm) required for a 50 percent kill of mites or eggs, respectively.

Corn = assay: Post-emergent herbicidal test, corn; type: in vivo; set-up: key: 1: no perceptible injury; 2: intermediate degrees of injury; 3: intermediate degrees of injury; 4: intermediate degrees of injury; 5: the plant was dead; conditions: 2500 parts per million, after ten days; for Post-emergent Herbicidal, Corn: Table II; for Post Emergent Herbicidal, Corn: Table III
Procedure: (§1) Suspensions of the test compounds were prepared by dissolving one gram of compound in 50 milliliters of acetone in which had been dissolved 0.1 gram (10 percent of the weight of compound) of an alkylphenoxyethanol sufactant, as an emulsifying or dispersing agent. The resulting solution was mixed into 160 milliliters of water to give roughly 200 milliliters of a suspension containing the compound in finely divided form. The thus prepared stock suspension contained 0.5 percent by weight of compound. The test concentrations employed in the tests described below were obtained by diluting the stock suspension with water. The test procedures were as follows:
(§2) Experiments were also conducted to determine the phytotoxicity of representative compositions with respect to healthy fresh plants. Solutions of the compounds were prepared as described above to provide a concentration of 2500 parts per million of the test compound. The test plants were sprayed in accordance with the procedure described above for the Mite Foliage Spray Test so as to deliver approximately 100 milliliters of test solutions to the leaves of each plant tested. The sprayed plants and controls were set aside for approximately one hour to allow the solutions to dry and were then placed in the greenhouse. After ten days the plants were visually inspected to determine the extent of foliage injury. A rating of 1 indicates no perceptible injury; 5 indicates the plant was dead and ratings of 2, 3 and 4 indicate intermediate degrees of injury based upon the number and extent to which leaves were injured.

Perennial rye grass = assay: Preliminary herbicide seed germination test (pre-emergent), perennial rye grass; type: in vivo, Solium perenne; set-up: key: 5: no seedling emerged; 4: few seedlings emerged and/or very severe stunting; 3: moderate reduction in stand and/or moderate stunting.; 2: very slight reduction in stand and/or slight stunting; 1: no injury, seedlings appear no different with respect to stand or growth than untreated controls; conditions: ten to twelve days after application
Procedure: as §1
The following seeds were used in this test:
Perennial rye grass--Solium perenne
Two […] mixtures were prepared as follows:
Each of the above mixtures was rolled separately in 5 gallon containers for approximately one-half hour on ball mill to insure uniform mixing of seeds and soil. For each compound four 3-inch pots were filled with soil to within 11/2 inches of top of pots. To two of these pots were added 70 cc. of Mixture I. To the remaining 2 pots were added 70 cc. of Mixture II. The seed-soil mixture was tamped firmly, and the pots were removed to the greenhouse and watered lightly. About 2 hours after planting, 25 milliliters of the test formulation were added to one pot containing Mixture I and one pot containing Mixture II. An equal volume of a water solution containing acetone and an emulsifier in the same concentration as the herbicidal mixture but without the candidate herbicide was also added to each of the soil-seed mixtures. These pots are used as check or control units. The test compounds were formulated by diluting the stock suspension with water to obtain the desired concentration of the compound in parts per million of the final formulation. Each compound was tested at the same concentration. […] Ratings were made according to the following designations: […]

Cotton = assay: Post-emergent herbicidal test, cotton; type: in vivo; set-up: key: 1: no perceptible injury; 2: intermediate degrees of injury; 3: intermediate degrees of injury; 4: intermediate degrees of injury; 5: the plant was dead; conditions: 2500 parts per million, after ten days; for Post-emergent Herbicidal, Cotton: Table II; for Post Emergent Herbicidal, Cotton: Table III
Procedure: as §1, §2

SMILES	Miticidal, Adult [1]	Post-emergent Herbicidal, Corn (Corn)	Pre-emergent Herbicidal, Rye (Perennial rye grass; Table II)	Post-emergent Herbicidal, Cotton (Cotton)	LC50 [1]	Post Emergent Herbicidal, Corn (Corn)	Pre-emergent Herbicidal, Rye (Perennial rye grass; Table III)	Post Emergent Herbicidal, Cotton (Cotton)
CCCCC(CC)C(=O)OC1=C(c2cc(C)ccc2C)C(=O)C(C)C1 (stereo not drawn) [Compound 17]	A	3	3	3				
Cc1ccc(C2=C(OC(=O)c3ccccc3)CCC2=O)c(C)c1 [Compound 10]	C	3	3	1				
CCCCC(CC)C(=O)OC1=C(c2ccccc2C)C(=O)CC1 (stereo not drawn) [Compound 7]	A	2	5	2				
CCCCCCCCCCCCCCCC(=O)OC1=C(c2ccccc2C)C(=O)CC1 [Compound 8]	A	3	2	2				
CCCCCCCCCC(=O)OC1=C(c2ccccc2C)C(=O)c2ccccc21 [reference compound]					500 µg/mL (≈ 1280 µM)	1	1	1
CC(C)C(=O)OC1=C(c2ccc(Cl)cc2Cl)C(=O)CC1 [Compound 4]	B	4	1	2				
CCCCC(CC)C(=O)OC1=C(c2ccc(Cl)cc2Cl)C(=O)CC1 (stereo not drawn) [Compound 5]	A	3	1	2				
CCCCC(CC)C(=O)OC1=C(c2ccccc2C)C(=O)c2ccccc21 (stereo not drawn) [reference compound]					500 µg/mL (≈ 1380 µM)	1	1	1
CCCCCCCCCCCCCCCC(=O)OC1=C(c2cc(C)ccc2C)C(=O)C2CCCCC12 (stereo not drawn) [Compound 33]	A	1	1	1				
CCCCC(CC)C(=O)OC1=C(c2ccccc2Cl)C(=O)CC1 (stereo not drawn) [Compound 1]	A	4	5	3				
CCCCCCCCCCCCCCCC(=O)OC1=C(c2ccccc2C)C(=O)c2ccccc21 [reference compound]					500 µg/mL (≈ 1050 µM)	1	1	1
CCCCC(CC)C(=O)OC1=C(c2cc(C)ccc2C)C(=O)C2CCCCC12 (stereo not drawn) [Compound 30, 3-(2-ethylhexanoyloxy)-2-(2',5'-dimethylphenyl)-4,5,6,7,8,9-hexahydro-2-indenone]	A	2	1	1				
CC(=O)OC1=C(c2cc(C)ccc2C)C(=O)CC1 [Compound 11]	A	2	4	2				
CCCCCCCCCCCCCCCC(=O)OC1=C(c2ccccc2C)C(=O)C2CCCCC12 (stereo not drawn) [drawing 17]					20 µg/mL (≈ 41.6 µM)	2	4	2
Cc1ccccc1C1=C(OC(=O)C(C)C)C2CCCCC2C1=O (stereo not drawn) [Compound 20]	A	5	4	3				
CCCCCCCCCCCCCCCC(=O)OC1=C(c2cc(C)ccc2C)C(=O)C(C)C1 (stereo not drawn) [Compound 18]	A	3	4	2				
CCCCC(CC)C(=O)OC1=C(c2ccc(C)cc2C)C(=O)CC1 (stereo not drawn) [Compound 9, 3-(2-ethylhexanoyloxy)-2-(2', 4'-dimethylphenyl)-2-cyclopentenone]	A	3	5	1				
CC(=O)OC1=C(c2ccccc2C)C(=O)C2CCCCC12 (stereo not drawn) [Compound 19, 3-acetoxy-2-(2'-methylphenyl)-4,5,6,7,8,9-hexahydro-2-indenone]	A	5	3	2				
CC(=O)OC1=C(c2ccc(Cl)cc2Cl)C(=O)CC1 [Compound 3]	A	3	2	2				
Cc1ccc(C2=C(OC(=O)c3ccccc3)C3CCCCC3C2=O)c(C)c1 (stereo not drawn) [Compound 27, 3-benzoyloxy-2-(2',4'-dimethylphenyl)-4,5,6,7,8,9-hexahydro-2-indenone]	A	4	5	2				
CCCCCCCCCC(=O)OC1=C(c2cc(C)ccc2C)C(=O)C2CCCCC12 (stereo not drawn) [Compound 32]	A	2	1	1				
